According to patent US10485772B2, “Compositions for modulating cancer stem cells and uses therefor” (University of Canberra, priority 2014, dated 2019):

Assays:
MDA-MB 231 cells [1] = experiment: FACS analysis of CD44high/CD24low CSC-like subpopulation in Basal/metastatic model; format: cell-based, human; conditions: bisindolylmaleimide-I 4 μM
Description: Cells from each well/flask were harvested by means of trypsin treatment followed by two washes with PBS. Washed cells then re-suspended in an antibody cocktail consisting anti-CD44-APC, anti-CD24-PE antibodies (details in Table 5) and Hoechst 33258 dye (final dilution of 1:1000) (Invitrogen, Carlsbad, Calif.) in 1% FCS-PBS solution. Cells re-suspended in antibody cocktail were incubated for 20 minutes at 4° C. Cells were next washed twice with PBS and re-suspended in 1% FCS-PBS solution (volume based on cell number) and kept on ice until analyzed by FACS. Forward scatter (FSC) and side scatter parameters were selected with FITC fluorochrome excited by 488 nm argonion laser, PE fluorochrome excited by 488 nm and Hoechst fluorochrome excited by 350 nm helium-cadmium UV laser.
Flow Cytometry data was produced using either BD FACS LSR Flow Cytometer (Becton Dickinson Biosciences) or BD FACS Aria™ II Flow Cytometer (Becton Dickinson Biosciences) and analyzed using the data acquisition software CellQuest Pro (Becton Dickinson Biosciences) and FlowJo (Tree Star Inc., Ashland, Oreg.) software at the MCRF facility, JCSMR, ANU, Canberra, Australia. Single colour controls were used to set compensation parameters. Isotype controls were used for all corresponding primary antibodies in each experiment.
(§1) The adherent human mammary adenocarcinoma MCF-7 and MDA-MB-231 cells were cultured in low glucose DMEM (Gibco) and both supplemented with 10% FCS, 2 mM L-glutamine and 0.1% PSN antibiotics. Cells were stimulated with 0.65 ng/ml of phorbol 12-myristate 13-acetate (PMA) (Sigma-Aldrich) or 20 ng/ml of TGF-β (R&D systems) for the times indicated. For Bisindolylmaleimide-I (Calbiochem) or PKC-θ peptide inhibitor (Calbiochem) studies, cells were pre-treated with 1 μM or 30 μM of inhibitor respectively for 1 h prior to stimulation in MCF-7 cells. In case of MDA-MB-231, cells were treated with 4 μM or 30 μM Bisindolylmaleimide-I or PKC-θ peptide inhibitor respectively.
To separate CSC from non-CSC (NCSC), florescence activated cell sorting (FACS) was performed on single-cell suspensions that were stained with anti-CD44-APC (559942, BD Biosciences) and anti-CD24-PE antibodies (555428, BD Biosciences) along with Hoechst 33258 to monitor cell viability. As used throughout this work, CSC are defined by minority CD44^high/CD24^low, whereas NCSC are defined by rest of the cell populations.

MDA-MB 231 cells [2] = experiment: Phase contrast microscopy of EMT/MET in Basal/metastatic model; format: cell-based, human; conditions: Bisindolylmaleimide 4 μM
Description: Phase contrast microscopy was utilized for EMT and wound healing assays under 10× or 20× magnification of Olympus Fluorescence 1X71 microscope. Images were captured and analyzed as described above except that wound healing assay pictures were also analyzed by Image J software (Free software in Public domain developed by NIH).
as §1
phase contrast microscopy was performed where cells were viewed at ×4 magnification (wound healing assay) or ×10 magnification (EMT) using an Olympus fluorescence IX71 microscope (Olympus) and images were captured using DPController software (2002 Olympus Optical Co. LTD) and analyzed using Photoshop CS3 (Adobe Systems Inc.). Scans were taken with a 10 μm scale bar.

[3] = listed as Broad spectrum PKC pathway inhibitor

For `CN(C)CCCn1cc(C2=C(c3c[nH]c4ccccc34)C(=O)NC2=O)c2ccccc21` [bisindolylmaleimide-I], the “CD44 high CD24 low-CSC-like subpopulation by FACS” value (MDA-MB 231 cells [1]) was “inhibits CD44 high CD24 low-CSC-like subpopulation”, the “CD44 high CD24 low-CSC-like subpopulation by FACS” value (MDA-MB 231 cells [1]; [3]) was “inhibition of EMT and CSC formation” and the “EMT (morphology)” value (MDA-MB 231 cells [2]) was “inhibits EMT”. The “EMT (morphology)” value (MDA-MB 231 cells [2]; [3]) was “inhibition of EMT and CSC formation”.
